{
  "source": "patent US20030114434A1",
  "about": "“EXTENDED DURATION LIGHT ACTIVATED CANCER THERAPY” (priority 1999, published 2003)",
  "key": {"[1]": {"conditions": "systemic clinical use; cited from earlier work"}, "[2]": {"conditions": "cited from earlier work"}, "[3]": {"test_system": "colon carcinoma tumor mass", "assay": "Extended duration PDT of a colon carcinoma tumor mass in a patient, implanted LED probes", "format": "in vivo, human", "source_text": "A patient in the terminal phase of recurrent malignant colon cancer having undergone chemotherapy and irradiation therapy, presented with a protruding colon carcinoma tumor mass of approximately 500 grams and approximately 13 cm in diameter, which extended through the patient's dermis. Due to the advanced state of the patient's disease and due to the highly vascularized nature of this tumor mass, resection was not feasible. Further, this large tumor mass presented a significant amount of pain and discomfort to the patient, as well as greatly impairing the patient's ability to lie flat.\nSix separate light source probes, each including a linear array of LEDs, were surgically implanted in this large human tumor using standard surgical procedures. A single dose of a photosensitizer agent (aminolevulinic acid (ALA) at 60 mg/kg) was provided by oral administration to the patient. Following a period of five hours to permit sufficient clearance of the photosensitizing agent from healthy tissues, light irradiation was administered. An intensity of about 25-30 mW of light from each light source probe (650 nm peak wavelength) was delivered to the tumor for 40 hours. […] The total fluence delivered to the tumor bed during this single extended duration treatment was in excess of 20,000 Joules.\nThe fluence rate employed in this Example represented about 150-180 mW/cm^2, with a total fluence more than 20,000 Joules."}, "[4]": {"test_system": "transplanted human tumors", "assay": "Nude mice with established transplanted human tumors, photosensitizer injected, low fluence light 72 hours", "format": "in vivo", "conditions": "for tumor necrosis: 660 nm light 72 hours, 30 microwatts per cm^2, after 7 days, two mice", "procedure": "(§1) A series of experiments were performed using nude mice growing transplanted human tumors. The mice are injected with various photosensitizers and the tumors illuminated with low fluence of only 30 uW of light over a 72 hour time period. Extended tumor necrosis was observed.\n(§2) All control nude mice were injected with the PDT drug (intratumor or intraperitoneal) and 5 million human carcinoma cells which developed a tumor mass. These mice were kept in a darkened environment.\n(§3) Another two mice with established tumors were injected with 50-100 micrograms of Pheophorbide A into the lesion and exposed to 660 nm light (30 microwatts per cm^2) for 72 hours.\n(§4) Two experimental mice were injected with epithelial cancer cells preincubated with 20 micrograms of Chlorin e6. […] Another two mice were injected with 100-150 micrograms of Chlorin e6 intratumorally and then exposed to 660 nm light (30 microwatts per cm^2) for 72 hours.\nFive experimental mice bearing established tumors were injected with 1 mg Hpd intraperitoneally followed by exposure to 630 nm (peak) light (30 microwatts per cm^2) for 72 hours. […] There was no effect observed on control animals maintained in the absence of light (dark control mice)."}, "epithelial cancer cells": {"test_system": "epithelial cancer cells", "assay": "Nude mice injected with epithelial cancer cells preincubated with photosensitizer, low fluence light", "format": "in vivo", "conditions": "for tumor growth: 660 nm light 48 hours, two mice", "procedure": "as §1, §2, §3, §4"}},
  "note": "Values joined by “and” are separate entries in the source; they are usually repeats but may differ in a detail not shown here. Equal values may be shown once.",
  "data": [
    {"compound": "CCOC(=O)C1=Cc2c3nc(cc4nc(cc5[n-]c(cc6[n-]c2c(C)c6CC)c(C)c5CC)C(C)=C4CC)[C@@H](C)[C@]13CC.[Cl-].[Cl-].[Sn]", "note": "(racemic) [PURLYTIN]", "values": [
      {"measurement": "duration of dermal photosensitivity", "setting": "[1]", "result": "at least several weeks"}
    ]},
    {"compound": "Oc1cccc(-c2c3nc(c(-c4cccc(O)c4)c4ccc([nH]4)c(-c4cccc(O)c4)c4nc(c(-c5cccc(O)c5)c5ccc2[nH]5)CC4)C=C3)c1", "note": "[FOSCAN]", "values": [
      {"measurement": "duration of dermal photosensitivity", "setting": "[1]", "result": "at least several weeks"}
    ]},
    {"compound": "CC(=O)[O-].CC(=O)[O-].CCc1c(CC)c2cc3nc(cnc4cc(OCCOCCOCCOC)c(OCCOCCOCCOC)cc4ncc4nc(cc1[n-]2)C(CCCO)=C4C)C(C)=C3CCCO.O.[Lu+3]", "note": "[Lutrin, lutetium texaphyrin]", "values": [
      {"measurement": "time for clearance from normal tissues (predominant amount)", "setting": "[2]; from administration", "result": "about 24 hours"},
      {"measurement": "time tumor tissue retains the agent", "setting": "[2]; from time of administration", "result": "48 to 96 h and 24 to 96 h"},
      {"measurement": "time at which a larger proportion clears from normal tissue", "setting": "[2]; in vivo", "result": "about 8 hours"},
      {"measurement": "time at which a proportion begins to clear from normal tissue", "setting": "[2]; in vivo", "result": "about 3 hours"},
      {"measurement": "time at which an even greater proportion clears from normal tissue", "setting": "[2]; in vivo", "result": "about 16 hours"}
    ]},
    {"compound": "NCC(=O)CCC(=O)O", "note": "[ALA, aminolevulinic acid]", "values": [
      {"measurement": "collateral damage to surrounding normal tissue", "setting": "[3]; ALA 60 mg/kg oral, after 40 hours of PDT", "result": "no collateral damage"},
      {"measurement": "radius of extensive tumor necrosis from each light source probe", "setting": "[3]; ALA 60 mg/kg oral, light from 5 hours after dose, 650 nm, 40 hours of PDT, total fluence >20,000 Joules", "result": "greater than 5 cm"},
      {"measurement": "reduction of tumor tissue (necrotic tissue debrided)", "setting": "[3]; over four weeks following PDT", "result": "approximately 500 grams"}
    ]},
    {"compound": "sodium porfimer [PHOTOFRIN]", "values": [
      {"measurement": "duration of dermal photosensitivity", "setting": "[1]", "result": "up to six weeks"}
    ]},
    {"compound": "Pheophorbide A", "values": [
      {"measurement": "tumor necrosis", "setting": "[4]; 50-100 micrograms into the lesion", "result": "Extensive tumor necrosis"},
      {"measurement": "effect on tumor, dark control", "setting": "[4]; Pheophorbide A experiment, absence of light", "result": "no effect"},
      {"measurement": "tumor growth, dark control", "setting": "epithelial cancer cells; Pheophorbide A experiment, maintained in the absence of light", "result": "developed a large tumor"},
      {"measurement": "tumor growth", "setting": "epithelial cancer cells; cells preincubated with 10 micrograms, 30 microwatts per cm2, after 1.5 months", "result": "no tumor growth"}
    ]},
    {"compound": "C=Cc1c(C)c2cc3nc(c(CC(=O)O)c4[nH]c(cc5nc(cc1[nH]2)C(C)=C5CC)c(C)c4C(=O)O)[C@@H](CCC(=O)O)[C@@H]3C", "note": "[Chlorin e6]", "values": [
      {"measurement": "tumor necrosis", "setting": "[4]; 100-150 micrograms intratumorally", "result": "Extensive tumor necrosis"},
      {"measurement": "tumor growth, dark control", "setting": "epithelial cancer cells; Chlorin e6 experiment, absence of light", "result": "developed a large tumor"},
      {"measurement": "tumor growth", "setting": "epithelial cancer cells; cells preincubated with 20 micrograms, 30 microwatts per cm^2, after 1.5 months", "result": "no tumor growth"}
    ]}
  ]
}
